Experimental data reported in BindingDB's records for doi:10.1021/jm00018a012 (Pfizer, 1995).
pIC50: −log10 of the molar value.

Molecular target: Platelet-activating factor receptor (Oryctolagus cuniculus)
Test: In vitro antagonist activity against platelet activating factor (PAF) receptor, using washed rabbit platelets

| pIC50 | SMILES |
| --- | --- |
| 8.62 | Cc1nc2cnccc2n1-c1ccc(C2=Nc3c(-c4cccnc4)nn(C)c3N(C)C(=O)C2)cc1 [1,8-Dimethyl-5-[4-(2-methyl-imidazo[4,5-c]pyridin-1-yl)-phenyl]-3-pyridin-3-yl-6,8-dihydro-1H-pyrazolo[3,4-b][1,4]diazepin-7-one] |
| 9.52 | Cc1cn2c(n1)CC(c1ccc(-n3c(C)nc4cnccc43)cc1)=Nc1cc(Cl)c(Cl)cc1-2 [8,9-Dichloro-2-methyl-5-[4-(2-methyl-imidazo[4,5-c]pyridin-1-yl)-phenyl]-4H-3,6,10b-triaza-benzo[e]azulene] |
| 8.64 | Cc1cc2c(cc1C)-n1cnnc1CC(c1ccc(-n3c(C)nc4cnccc43)cc1)=N2 [8,9-Dimethyl-5-[4-(2-methyl-imidazo[4,5-c]pyridin-1-yl)-phenyl]-4H-2,3,6,10b-tetraaza-benzo[e]azulene] |
| 8.46 | Cc1nc2cnccc2n1-c1ccc(C2=Nc3c(C(C)C)nn(C)c3N(C)C(=O)C2)cc1 [3-Isopropyl-1,8-dimethyl-5-[4-(2-methyl-imidazo[4,5-c]pyridin-1-yl)-phenyl]-6,8-dihydro-1H-pyrazolo[3,4-b][1,4]diazepin-7-one] |
| 9.30 | Cc1nc2cnccc2n1-c1ccc(C2=Nc3c(-c4ccccc4)nn(C)c3N(C)C(=O)C2)cc1 [1,8-Dimethyl-5-[4-(2-methyl-imidazo[4,5-c]pyridin-1-yl)-phenyl]-3-phenyl-6,8-dihydro-1H-pyrazolo[3,4-b][1,4]diazepin-7-one] |
| 9.22 | Cc1nc2cnccc2n1-c1ccc(C2=Nc3c(-c4ccccc4)nn(C)c3NC(=O)C2)cc1 [1-Methyl-5-[4-(2-methyl-imidazo[4,5-c]pyridin-1-yl)-phenyl]-3-phenyl-6,8-dihydro-1H-pyrazolo[3,4-b][1,4]diazepin-7-one] |
| 8.57 | Cc1nc2cnccc2n1-c1ccc(C2=Nc3c(c(-c4ccccc4)nn3C)NC(=O)C2)cc1 [1-Methyl-7-[4-(2-methyl-imidazo[4,5-c]pyridin-1-yl)-phenyl]-3-phenyl-4,6-dihydro-1H-pyrazolo[3,4-b][1,4]diazepin-5-one] |
| 7.26 | Cc1cc2c(cc1C)-n1c(n[nH]c1=O)CC(c1ccc(-n3c(C)nc4cnccc43)cc1)=N2 [8,9-Dimethyl-5-[4-(2-methyl-imidazo[4,5-c]pyridin-1-yl)-phenyl]-2,4-dihydro-2,3,6,10b-tetraaza-benzo[e]azulen-1-one] |
| 7.77 | Cc1nn(C)c2c1N=C(c1ccc(-n3c(C)nc4cnccc43)cc1)CC(=O)N2C [1,3,8-Trimethyl-5-[4-(2-methyl-imidazo[4,5-c]pyridin-1-yl)-phenyl]-6,8-dihydro-1H-pyrazolo[3,4-b][1,4]diazepin-7-one] |
| 7.68 | Cc1cc(C)c2c(n1)N=C(c1ccc(-n3c(C)nc4cnccc43)cc1)CC(=O)N2 [7,9-Dimethyl-4-[4-(2-methyl-imidazo[4,5-c]pyridin-1-yl)-phenyl]-1,3-dihydro-pyrido[3,4-b][1,4]diazepin-2-one] |
| 9.15 | Cc1nc2cnccc2n1-c1ccc(C2=Nc3c(C4CCCCC4)nn(C)c3N(C)C(=O)C2)cc1 [3-Cyclohexyl-1,8-dimethyl-5-[4-(2-methyl-imidazo[4,5-c]pyridin-1-yl)-phenyl]-6,8-dihydro-1H-pyrazolo[3,4-b][1,4]diazepin-7-one] |
| 7.85 | Cc1nc2cnccc2n1-c1ccc(C2=Nc3c(-c4ccccn4)nn(C)c3N(C)C(=O)C2)cc1 [1,8-Dimethyl-5-[4-(2-methyl-imidazo[4,5-c]pyridin-1-yl)-phenyl]-3-pyridin-2-yl-6,8-dihydro-1H-pyrazolo[3,4-b][1,4]diazepin-7-one] |
| 8.92 | Cc1cnc2n1-c1cc(Cl)c(Cl)cc1N=C(c1ccc(-n3c(C)nc4cnccc43)cc1)C2 [8,9-Dichloro-1-methyl-5-[4-(2-methyl-imidazo[4,5-c]pyridin-1-yl)-phenyl]-4H-3,6,10b-triaza-benzo[e]azulene] |
| 8.82 | Cc1nc2cnccc2n1-c1ccc(C2=Nc3c(-c4cccs4)nn(C)c3N(C)C(=O)C2)cc1 [1,8-Dimethyl-5-[4-(2-methyl-imidazo[4,5-c]pyridin-1-yl)-phenyl]-3-thiophen-2-yl-6,8-dihydro-1H-pyrazolo[3,4-b][1,4]diazepin-7-one] |
| 7.59 | Cc1nn(C)c2c1N=C(c1ccc(-n3c(C)nc4cnccc43)cc1)CC(=O)N2 [1,3-Dimethyl-5-[4-(2-methyl-imidazo[4,5-c]pyridin-1-yl)-phenyl]-6,8-dihydro-1H-pyrazolo[3,4-b][1,4]diazepin-7-one] |
| 9.40 | Cc1nc2cnccc2n1-c1ccc(C2=Nc3c(C4CCCCC4)nn4c3N(CCCC4)C(=O)C2)cc1 [3-Cyclohexyl-6-[4-(2-methyl-imidazo[4,5-c]pyridin-1-yl)-phenyl]-1,2,5,9-tetraaza-tricyclo[7.4.1.0*4,14*]tetradeca-2,4(14),5-trien-8-one] |
| 8.28 | Cc1nc2cnccc2n1-c1ccc(C2=Nc3c(-c4ccncc4)nn(C)c3N(C)C(=O)C2)cc1 [1,8-Dimethyl-5-[4-(2-methyl-imidazo[4,5-c]pyridin-1-yl)-phenyl]-3-pyridin-4-yl-6,8-dihydro-1H-pyrazolo[3,4-b][1,4]diazepin-7-one] |
| 8.62 | Cc1cc2c(cc1C)-n1c(C)nnc1CC(c1ccc(-n3c(C)nc4cnccc43)cc1)=N2 [1,8,9-Trimethyl-5-[4-(2-methyl-imidazo[4,5-c]pyridin-1-yl)-phenyl]-4H-2,3,6,10b-tetraaza-benzo[e]azulene] |
| 8.77 | Cc1nc2cnccc2n1-c1ccc(C2=Nc3cc(Cl)c(Cl)cc3-n3ccnc3C2)cc1 [8,9-Dichloro-5-[4-(2-methyl-imidazo[4,5-c]pyridin-1-yl)-phenyl]-4H-3,6,10b-triaza-benzo[e]azulene] |
| 7.96 | Cc1cc2c(cc1C)-n1nnnc1CC(c1ccc(-n3c(C)nc4cnccc43)cc1)=N2 [8,9-Dimethyl-5-[4-(2-methyl-imidazo[4,5-c]pyridin-1-yl)-phenyl]-4H-1,2,3,6,10b-pentaaza-benzo[e]azulene] |
| 8.89 | Cc1cc2c(cc1C)-n1ccnc1CC(c1ccc(-n3c(C)nc4cnccc43)cc1)=N2 [8,9-Dimethyl-5-[4-(2-methyl-imidazo[4,5-c]pyridin-1-yl)-phenyl]-4H-3,6,10b-triaza-benzo[e]azulene] |
| 9.00 | Cc1nn(C)c2c1NC(=O)CC(c1ccc(-n3c(C)nc4cnccc43)cc1)=N2 [1,3-Dimethyl-7-[4-(2-methyl-imidazo[4,5-c]pyridin-1-yl)-phenyl]-4,6-dihydro-1H-pyrazolo[3,4-b][1,4]diazepin-5-one] |
| 7.85 | Cc1nc2cnccc2n1-c1ccc(C2=Nc3c(CO)nn(C)c3N(C)C(=O)C2)cc1 [3-Hydroxymethyl-1,8-dimethyl-5-[4-(2-methyl-imidazo[4,5-c]pyridin-1-yl)-phenyl]-6,8-dihydro-1H-pyrazolo[3,4-b][1,4]diazepin-7-one] |

| SMILES | pIC50 |
| --- | --- |
| Cc1nc2cnccc2n1-c1ccc(C2=Nc3c(COCC(C)C)nn(C)c3N(C)C(=O)C2)cc1 [3-Isobutoxymethyl-1,8-dimethyl-5-[4-(2-methyl-imidazo[4,5-c]pyridin-1-yl)-phenyl]-6,8-dihydro-1H-pyrazolo[3,4-b][1,4]diazepin-7-one] | 9.10 |
